Consider 18 compounds from US9511134B2, “Inducing immune responses to influenza virus using polypeptide and nucleic acid compositions” (priority 2006, dated 2016).

Where no end group is shown, it is not given here.

What all share (assay): biochemical
Holding throughout (type): binding

One assay has as its target T1, DRB1*0301 (Homo sapiens, UniProt P01903+P01911, A100K/A102G/A103R/A169T/F55Y/I96L/K41T/L162R/M171V/P40S/Q125H/Q178H/Q39Y/R42S/S66N/T106N/T262R/W38E/Y61H).
T1 construct: made in house; host or cells: EBV-transformed homozygous human B cell lines, transfected fibroblasts or single-allele 721.221 transfectants

The next assay has as its target DRB1*1302 (Homo sapiens, UniProt P01903+P01911, A100E/A169T/K41T/L162R/M171V/P40S/Q125H/Q178H/Q39Y/Q99D/R42S/S66N/T262R/V115G/W38E/Y61H). The note with it: read-out: IC50 nM to purified HLA DRB1*1302.
The target of another assay is T2, DRB1*1501 (Homo sapiens, UniProt P01903+P01911).
T2 construct: made in house; host or cells: EBV-transformed homozygous human B cell lines, transfected fibroblasts or single-allele 721.221 transfectants
The note with it: read-out: IC50 nM to purified HLA DRB1*1501.

A further assay deals with T3, DRB1*0101 (Homo sapiens, UniProt P01903+P01911, A100R/D57E/F55L/F60I/F76Y/I96L/L162R/M171V/P40L/Q125E/R42F/V115G/Y59C).
T3 construct: made in house; host or cells: EBV-transformed homozygous human B cell lines, transfected fibroblasts or single-allele 721.221 transfectants
The note with it: IC50 nM to purified HLA DRB1*0101.

A further assay deals with T4, DRB1*0401 (Homo sapiens, UniProt P01903+P01911, A100K/A169T/F76Y/I96L/K127E/L162R/M171V/N62H/P40V/Q125Y/R42H/S133A/S149N/S66Y/V115G/V209L/W38E).
T4 construct: made in house; host or cells: EBV-transformed homozygous human B cell lines, transfected fibroblasts or single-allele 721.221 transfectants
To be noted: read-out: IC50 nM to purified HLA DRB1*0401.

T1 sequence (P01903 26-254, other chains not shown): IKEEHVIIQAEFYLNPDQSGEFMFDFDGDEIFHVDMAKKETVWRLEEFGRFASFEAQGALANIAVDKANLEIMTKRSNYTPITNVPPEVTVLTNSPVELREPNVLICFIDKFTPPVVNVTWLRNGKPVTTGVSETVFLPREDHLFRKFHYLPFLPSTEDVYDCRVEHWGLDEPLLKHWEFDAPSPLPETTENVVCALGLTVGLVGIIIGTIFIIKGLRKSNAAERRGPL
Sequence of DRB1*1302 (P01903 26-254 limits assumed, other chains not shown): as the sequence (P01903 26-254, other chains not shown) above

For the compound `CSCC[C@H](NC(=O)[C@H](CCCCN)NC(=O)[C@H](CO)NC(=O)[C@@H](N)C(C)C)C(=O)NCC(=O)N[C@H](C(=O)N[C@@H](CC(=O)O)C(=O)N[C@@H](CCC(=O)O)C(=O)N[C@@H](Cc1ccc(O)cc1)C(=O)N[C@@H](CO)C(=O)N[C@@H](CO)C(=O)N[C@H](C(=O)N[C@@H](CCC(=O)O)C(=O)N[C@@H](CCCNC(=N)N)C(=O)N[C@H](C(=O)O)C(C)C)[C@@H](C)O)C(C)C` [Flu.PB2.483], the IC50 worked out at 1020 nM at DRB1*0301 and 1850 nM at DRB1*1302.
On DRB1*0301, `CC[C@H](C)[C@H](NC(=O)[C@H](CC(C)C)NC(=O)[C@H](CCSC)NC(=O)[C@H](CC(C)C)NC(=O)[C@H](Cc1c[nH]c2ccccc12)NC(=O)[C@H](CC(=O)O)NC(=O)[C@H](CCCNC(=N)N)NC(=O)[C@H](CO)NC(=O)[C@H](CCSC)NC(=O)[C@H](CCC(=O)O)NC(=O)[C@H](CCC(=O)O)NC(=O)[C@@H](N)CC(C)C)C(=O)N1CCC[C@H]1C(=O)N[C@@H](CCCCN)C(=O)N[C@@H](CCC(N)=O)C(=O)O` [Flu.NS1.98] returned a half-inhibitory concentration (IC50) of 170 nM.
Turning to `CC[C@H](C)[C@H](NC(=O)[C@H](Cc1ccc(O)cc1)NC(=O)[C@@H](NC(=O)[C@@H](NC(=O)[C@@H]1CCCN1C(=O)[C@H](CC(N)=O)NC(=O)[C@H](CCC(N)=O)NC(=O)[C@H](Cc1ccc(O)cc1)NC(=O)[C@H](CC(C)C)NC(=O)[C@H](CCCCN)NC(=O)[C@@H](NC(=O)[C@@H](N)CCC(N)=O)[C@@H](C)O)[C@@H](C)O)[C@@H](C)O)C(=O)N[C@@H](CO)C(=O)N[C@H](C(=O)NCC(=O)N[C@H](C(=O)O)[C@@H](C)O)C(C)C` [Flu.HA.203], the IC50 worked out at 60 nM at DRB1*1501 and 18 nM on DRB1*1302.
For `CC[C@H](C)[C@H](N)C(=O)NCC(=O)N[C@@H](CC(N)=O)C(=O)N[C@@H](CCSC)C(=O)N[C@H](C(=O)N[C@@H](CO)C(=O)N[C@H](C(=O)N[C@@H](Cc1c[nH]c2ccccc12)C(=O)N[C@H](C(=O)N[C@@H](CO)C(=O)N[C@@H](Cc1c[nH]cn1)C(=O)N[C@@H](CO)C(=O)N[C@H](C(=O)N[C@@H](Cc1c[nH]cn1)C(=O)N[C@H](C(=O)NCC(=O)O)[C@@H](C)O)[C@@H](C)CC)C(C)C)[C@@H](C)CC)[C@@H](C)CC` [Flu.NA.26], the IC50 worked out at 81 nM on DRB1*1501, 5950 nM on DRB1*1302 and 1050 nM at DRB1*0101.
On DRB1*0301, `CSCC[C@H](NC(=O)[C@H](CC(C)C)NC(=O)[C@@H](NC(=O)[C@H](CC(C)C)NC(=O)[C@@H](N)CC(C)C)C(C)C)C(=O)N[C@@H](CCC(=O)O)C(=O)N[C@@H](CC(N)=O)C(=O)N[C@@H](CCC(=O)O)C(=O)N[C@@H](CCCNC(=N)N)C(=O)N[C@H](C(=O)N[C@@H](CC(C)C)C(=O)N[C@@H](CC(=O)O)C(=O)N[C@@H](Cc1ccccc1)C(=O)N[C@@H](Cc1c[nH]cn1)C(=O)N[C@@H](CC(=O)O)C(=O)O)[C@@H](C)O` [Flu.HA.444] registered an IC50 of 64 nM.
Regarding `CC[C@H](C)[C@H](NC(=O)[C@H](CC(C)C)NC(=O)[C@H](Cc1c[nH]c2ccccc12)NC(=O)[C@@H](NC(=O)[C@@H](NC(=O)[C@H](CC(N)=O)NC(=O)[C@H](CCCNC(=N)N)NC(=O)[C@H](Cc1ccccc1)NC(=O)[C@H](Cc1ccccc1)NC(=O)[C@H](CO)NC(=O)[C@H](CO)NC(=O)[C@@H](N)CCCCN)C(C)C)C(C)C)C(=O)N[C@@H](CCCCN)C(=O)N[C@@H](CCCCN)C(=O)N[C@@H](CC(N)=O)C(=O)O` [Flu.HA.156], the IC50 is 832 nM on DRB1*1501, 20 nM at DRB1*1302, 474 nM on DRB1*0401 and 46 nM against DRB1*0101.
MEWLKTRPILSPLTK [Flu.M1.46]: the IC50 on DRB1*1501 came out at 111 nM; on DRB1*1302, 3870 nM; at DRB1*0401, 528 nM; against DRB1*0101, 52 nM.
Take `CC(C)C[C@H](NC(=O)[C@H](CO)NC(=O)[C@H](CCCCN)NC(=O)[C@H](CCC(N)=O)NC(=O)[C@H](CC(=O)O)NC(=O)[C@H](CCCNC(=N)N)NC(=O)[C@H](CCCNC(=N)N)NC(=O)[C@H](CC(C)C)NC(=O)[C@H](CCCNC(=N)N)NC(=O)[C@H](CC(=O)O)NC(=O)[C@@H](N)CC(C)C)C(=O)N[C@@H](CCCNC(=N)N)C(=O)NCC(=O)N[C@@H](CCCNC(=N)N)C(=O)NCC(=O)O` [Flu.NS1.36]: the IC50 against DRB1*0301 is 83 nM; against DRB1*0101 it was 800 nM.
`CC[C@H](C)[C@H](NC(=O)[C@H](CC(N)=O)NC(=O)[C@H](CC(N)=O)NC(=O)[C@H](CCCNC(=N)N)NC(=O)[C@H](Cc1c[nH]c2ccccc12)NC(=O)[C@H](CO)NC(=O)[C@H](CCCCN)NC(=O)[C@@H](NC(=O)[C@@H](NC(=O)[C@H](CC(=O)O)NC(=O)[C@@H](NC(=O)[C@@H](NC(=O)[C@@H](NC(=O)CNC(=O)[C@H](CC(N)=O)NC(=O)[C@@H](N)Cc1ccc(O)cc1)[C@@H](C)CC)[C@@H](C)CC)[C@@H](C)O)[C@@H](C)O)[C@@H](C)CC)C(=O)O` [Flu.NA.188]: the figures for the IC50 on DRB1*1501 and at DRB1*1302 were 31 nM and 370 nM, respectively.
`CC[C@H](C)[C@H](NC(=O)[C@H](CCCNC(=N)N)NC(=O)[C@H](CCCCN)NC(=O)[C@@H](NC(=O)[C@H](C)NC(=O)[C@@H](NC(=O)[C@H](CCC(N)=O)NC(=O)[C@H](CO)NC(=O)[C@H](CC(=O)O)NC(=O)[C@@H](NC(=O)[C@H](CC(C)C)NC(=O)[C@@H](NC(=O)[C@H](CO)NC(=O)[C@H](CO)NC(=O)[C@@H](N)CC(=O)O)[C@@H](C)CC)[C@@H](C)O)[C@@H](C)O)[C@@H](C)O)C(=O)O` [Flu.PB2.743] registered a half-maximal inhibitory concentration (IC50) at DRB1*0301 of 36 nM.
On the same count and under the same terms, with `CC[C@H](C)[C@H](NC(=O)[C@@H](N)CC(C)C)C(=O)N[C@@H](CC(=O)O)C(=O)N[C@@H](Cc1ccccc1)C(=O)N[C@@H](CC(C)C)C(=O)N[C@@H](CCCCN)C(=O)N[C@@H](CC(=O)O)C(=O)N[C@H](C(=O)N[C@@H](CCSC)C(=O)N[C@@H](CCC(=O)O)C(=O)N[C@@H](CO)C(=O)N[C@@H](CCSC)C(=O)N[C@@H](CC(=O)O)C(=O)N[C@@H](CCCCN)C(=O)N[C@@H](CCC(=O)O)C(=O)O)C(C)C` [Flu.PB1.166] the figure was 120 nM.
In the case of `CC(C)C[C@H](NC(=O)[C@H](CCC(=O)O)NC(=O)[C@@H](NC(=O)[C@H](CO)NC(=O)[C@H](CCCCN)NC(=O)[C@@H](N)C(C)C)C(C)C)C(=O)N[C@@H](CC(=O)O)C(=O)N[C@@H](C)C(=O)N1CCC[C@H]1C(=O)N[C@@H](CC(N)=O)C(=O)N[C@@H](Cc1ccc(O)cc1)C(=O)N[C@@H](Cc1c[nH]cn1)C(=O)N[C@@H](Cc1ccc(O)cc1)C(=O)N[C@@H](CCC(=O)O)C(=O)N[C@@H](CCC(=O)O)C(=O)O` [Flu.NA.244], the values for the IC50 at DRB1*0301 and on DRB1*1302 were 65 nM and 197 nM, respectively.
As for `CC[C@H](C)[C@H](NC(=O)[C@H](CC(C)C)NC(=O)[C@@H](N)Cc1ccccc1)C(=O)N[C@@H](CC(C)C)C(=O)NCC(=O)N[C@@H](CCCCN)C(=O)N[C@@H](CCC(=O)O)C(=O)N[C@@H](CC(=O)O)C(=O)N[C@@H](CCCNC(=N)N)C(=O)N[C@@H](CCCNC(=N)N)C(=O)N[C@@H](Cc1ccc(O)cc1)C(=O)NCC(=O)N1CCC[C@H]1C(=O)N[C@@H](C)C(=O)N[C@@H](CC(C)C)C(=O)O` [Flu.PB2.697], the IC50 against DRB1*0301 is 565 nM; on DRB1*1302, 118 nM; on DRB1*0401, 1740 nM; against DRB1*0101 it was 8390 nM.
`CC[C@H](C)[C@H](NC(=O)CNC(=O)[C@H](CC(N)=O)NC(=O)[C@H](Cc1ccc(O)cc1)NC(=O)[C@H](CCCCN)NC(=O)[C@H](CC(C)C)NC(=O)[C@@H](NC(=O)[C@H](C)NC(=O)[C@@H](N)C(C)C)C(C)C)C(=O)N[C@H](C(=O)N[C@H](C(=O)N[C@@H](CC(=O)O)C(=O)N[C@H](C(=O)N[C@H](C(=O)N[C@@H](CCCCN)C(=O)N[C@@H](CO)C(=O)N[C@@H](Cc1c[nH]c2ccccc12)C(=O)O)[C@@H](C)CC)[C@@H](C)O)[C@@H](C)O)[C@@H](C)CC` [Flu.NA.183]: the IC50 at DRB1*1501 was 19 nM; on DRB1*0401, 319 nM; against DRB1*0101, 3390 nM.
Consider CEQIADSQHRSHRQM [Flu.M1.154], for which the half-inhibitory concentration (IC50) at DRB1*0301 amounted to 804 nM.
Still for that read-out and setting: with `CC[C@H](C)[C@H](NC(=O)[C@H](CC(C)C)NC(=O)[C@H](CC(=O)O)NC(=O)[C@H](CC(=O)O)NC(=O)[C@H](CCCCN)NC(=O)[C@H](CC(C)C)NC(=O)CNC(=O)[C@H](C)NC(=O)[C@@H](N)CO)C(=O)N[C@@H](CCC(=O)O)C(=O)N[C@@H](CC(N)=O)C(=O)N[C@@H](CC(C)C)C(=O)N[C@@H](CCC(N)=O)C(=O)N[C@@H](C)C(=O)N[C@@H](Cc1ccc(O)cc1)C(=O)O` [Flu.M1.229] the figure was 64 nM.
Take `CC(C)C[C@H](NC(=O)[C@H](C)NC(=O)CNC(=O)[C@H](CCC(N)=O)NC(=O)[C@@H](NC(=O)[C@H](CC(C)C)NC(=O)[C@H](Cc1ccccc1)NC(=O)[C@H](Cc1ccccc1)NC(=O)[C@@H](NC(=O)[C@@H](N)CCCNC(=N)N)[C@@H](C)O)[C@@H](C)O)C(=O)N[C@@H](CC(C)C)C(=O)N[C@@H](CC(N)=O)C(=O)N[C@@H](CC(=O)O)C(=O)N[C@@H](CCCCN)C(=O)N[C@@H](Cc1c[nH]cn1)C(=O)N[C@@H](CO)C(=O)O` [Flu.NA.110]: the IC50 was 790 nM on DRB1*1501, 3210 nM at DRB1*1302, 251 nM at DRB1*0401 and 16 nM on DRB1*0101.
As for TRPILSPLTKGILGF [Flu.M1.51], the IC50 on DRB1*1501 is 140 nM; at DRB1*1302, 292 nM; at DRB1*0101 it was 423 nM.
